Data published in patent US11549147B2, “Treatment of atopic dermatitis with tradipitant” (VANDA PHARMACEUTICALS INC., priority 2017, dated 2023).

Experiments:
Format in all cases: in vivo, human
[1] = system: chronic pruritus in patients with atopic dermatitis; test: Phase II proof of concept study VP-VLY-686-2101: tradipitant monotherapy vs placebo (Example 1); set-up: key to VAS Worst change / VAS Worst change, Diff / VAS Average change / VAS Average change, Diff: VAS points in mm; VRS change / VRS change, Diff / FBI / FBI, Diff / CGIC / CGIC, Diff: scale not given here; details: for CGIC / DLQI change / FBI / SCORAD change / VAS Average change / VAS Worst change / VRS change: 100 mg qd evening; for CGIC, Diff / DLQI change, Diff / FBI, Diff / SCORAD change, Diff / VAS Average change, Diff / VAS Worst change, Diff / VRS change, Diff: Diff tradipitant vs placebo
Method: A phase II proof of concept clinical study (Study ID VP-VLY-686-2101, “Proof of Concept of VLY-686 in Subjects With Treatment-Resistant Pruritus Associated With Atopic Dermatitis”) is conducted, investigating the safety and efficacy of tradipitant as a monotherapy in the treatment of chronic pruritus in patients with atopic dermatitis.
In the study, patients with a Visual Analog Scale (VAS) score of greater than 70 mm during one of the two days preceding inclusion into the study are randomized to receive orally either 100 mg of tradipitant (n=34) or placebo (n=35) once a day in the evening. In the tradipitant arm of the study, tradipitant is orally administered to patients in capsules with standard excipients in an amount of 100 mg in the evening. Clinical assessments are made after 3 or 4 weeks of daily treatment, or at both 3 weeks and 4 weeks, each assessment being done in the morning of the day after last treatment or in the afternoon of the day after last treatment. The tradipitant is administered in an immediate release form comprising tradipitant and pharmaceutically acceptable excipients in a capsule. The tradipitant particle size is approximately: D10: <5 um, D50: <10 um, and D90: <25 um, wherein Dio means that 10% of the particles are of the indicated mean particle size, D50 means that 50% of the particles are of the indicated mean particle size, and D90 means that 90% of the particles are of the indicated mean particle size.
(§1) Baseline VAS scores are 76.1 and 77.2 for the tradipitant and placebo arms respectively. Efficacy is evaluated through a number of clinical research instruments. In addition, at the time of efficacy evaluation blood samples are collected for PK analysis in order to determine the plasma levels of tradipitant.

[2] = Plasma levels of tradipitant at time of efficacy evaluation, PK analysis (Example 1); details: 100 mg qd
Method: as §1
The average plasma concentrations of tradipitant across AM and PM-evaluated patients are between about 125 ng/mL and about 225 ng/mL. Patients evaluated in the afternoons (PM) (mean=about 20 hours post last administration) tend to have lower plasma concentrations of tradipitant than patients evaluated in the mornings (AM) (mean=about 15 hours post last administration). The average plasma concentration in the PM group is about 125 ng/mL, and the average plasma concentration in the AM group is about 225 ng/mL, the difference being largely attributable to the length of time post-administration.

[3] = system: responders and non-responders to tradipitant treatment of atopic dermatitis; test: Association analysis of genetic markers with VAS response to tradipitant treatment (Example 6, Tables 10-11)
Method: A further study is performed to identify additional genetic markers that correlate directly with a positive response to tradipitant treatment. To identify the genetic markers, an association analysis is conducted using a logistic additive model. Visual Analog Scale (VAS) is used as the response outcome metric. The identified variants are shown below in Table 10.
Using the top significant SNPs chosen by p-value cutoff, individuals are classified on responder status to tradipitant treatment, with AUC of 0.95 (10 fold cross validation). Loss of function (LOF) and protein coding variants are investigated in terms of VAS outcomes on the cohort of cases.

For O=C(c1ccccc1Cl)c1cccnc1-c1nnn(Cc2cc(C(F)(F)F)cc(C(F)(F)F)c2)c1-c1ccncc1 [Tradipitant], the adverse event profile ([1]; 100 mg qd) was “mild and similar to placebo”, the tolerability ([1]; 100 mg qd) was “well-tolerated” and the “endpoints corresponding to the underlying disease (SKINDEX, SCORAD objective, EASI and DLQI) vs placebo” value ([1]; 100 mg qd, 4-week study) was “do not show any significant difference from placebo”. It also gave a CGIC ([1]; AM group, 3-4 weeks) of 2.46, a DLQI change ([1]; AM group, 3-4 weeks) of −2.52 and an FBI ([1]; AM group, 3-4 weeks) of 1.47. For the same molecule, the SCORAD change ([1]; AM group, 3-4 weeks) was −9.58, the “VAS Average change” value ([1]; AM group, 3-4 weeks) was −54 and the “VAS Worst change” value ([1]; AM group, 3-4 weeks) was −47.9. For the same molecule, the VRS change ([1]; AM group, 3-4 weeks) was −1.46, the “CGIC, Diff” value ([1]; AM group) was −1.15 and the “DLQI change, Diff” value ([1]; AM group) was 0.35. For the same molecule, the “FBI, Diff” value ([1]; AM group) was 0.74, the “SCORAD change, Diff” value ([1]; AM group) was −5.23 and the “VAS Average change, Diff” value ([1]; AM group) was −23.7. For the same molecule, the “VAS Worst change, Diff” value ([1]; AM group) was −21.9, the “VRS change, Diff” value ([1]; AM group) was −0.79 and the “CGIC, Diff” value ([1]; PM group) was 0.19. For the same molecule, the “DLQI change, Diff” value ([1]; PM group) was −1.89, the “FBI, Diff” value ([1]; PM group) was −0.39 and the “SCORAD change, Diff” value ([1]; PM group) was 0.88. For the same molecule, the “VAS Average change, Diff” value ([1]; PM group) was 5.82, the “VAS Worst change, Diff” value ([1]; PM group) was 8.99 and the “VRS change, Diff” value ([1]; PM group) was −0.13. It also gave a CGIC ([1]; PM group, 3-4 weeks) of 2.47, a DLQI change ([1]; PM group, 3-4 weeks) of −5.45 and an FBI ([1]; PM group, 3-4 weeks) of 1.01. For the same molecule, the SCORAD change ([1]; PM group, 3-4 weeks) was −6.29, the “VAS Average change” value ([1]; PM group, 3-4 weeks) was −28.8 and the “VAS Worst change” value ([1]; PM group, 3-4 weeks) was −32.3. For the same molecule, the VRS change ([1]; PM group, 3-4 weeks) was −1.29, the “improvement from baseline on 100 mm unit Visual Analog Scale (VAS) for itch” value ([1]; all patients, 100 mg once a day in the evening, 3-4 weeks) was 40.5 mm and the average plasma concentration ([2]; AM group, mean about 15 hours post last administration) was “about 225 ng/mL”. For the same molecule, the “plasma concentration at which patients tend to show greater efficacy” value ([2]; PK-efficacy correlation) was greater than 100 ng/mL, the average plasma concentration ([2]; PM group, mean about 20 hours post last administration) was “about 125 ng/mL” and the “response to tradipitant treatment of atopic dermatitis by genotype” value (from here on “response to tradipitant treatment”) ([3]; CTNNA3 rs57930837 AA genotype) was “a majority of rs57930837 AA individuals do not respond to treatment”. The “response to tradipitant treatment” value ([3]; CTNNA3 rs57930837 CA genotype) was “a majority of individuals having a CA rs57930837 genotype respond to treatment” and the “response to tradipitant treatment” value ([3]; CTNNA3 rs57930837 CC genotype) was “all individuals having a CC rs57930837 genotype respond to treatment”.
